# Data published in patent US6441019B2, “Cyclocarbamate and cyclic amide derivatives” (Wyeth, priority 1999, dated 2002).
row,melting point [°C],Structure (SMILES)
1,149 to 150,"CC1(C)OC(=O)Nc2sc(-c3cccc(Cl)c3)cc21 [Example 1, 6-(3-chlorophenyl)-1,4-dihydro-4,4-dimethyl-2H-thieno [2,3-d][1,3]oxazine-2-one]"
2,123 to 125,"CC1(C)OC(=O)Nc2cc(-c3cccc(Cl)c3)sc21 [Example 2, 6-(3-chlorophenyl)-1,4-dihydro-4,4-dimethyl-2H-thieno[3,2-d][1,3]oxazine-2-one]"
